Values joined by “and” are separate entries in the source; they are usually repeats but may differ in a detail not shown here. Equal entries are not always repeated. Marks after values point to notes of the source that are not given here.
Experiments:
Format in all cases: cell-based
human PBMCs = experiment: Th1 cytokines in supernatants of stimulated human PBMC, GPR174 inhibitor with adenosine pathway inhibitors (Examples 15, 18-22); conditions: donor 7
In short: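 Human donor PBMCs (1×10^6 cells/well) were stimulated with 1 µg/mL anti-CD3 (UCHT1) plus 0.1 µg/mL anti-CD28 (CD28.2) for 24 h with test agents. IFN-γ, IL-2, TNF and GM-CSF in supernatants were measured by ELISA, Legendplex or MSD. Fold changes were compared by one-way ANOVA with Tukey correction.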

mouse splenocytes = experiment: IL-2 levels in supernatants of cultured mouse splenocytes (WT or GPR174-KO) stimulated with anti-CD3 and anti-CD28, MSD platform; conditions: GPR174-KO splenocytes, NECA 0.1 μM, 2 days; compounds 10, 6 0.3 μM, ZM-241385 0.2 μM; FIG. 70B
Procedure: To make single cell suspensions from mouse splenocytes, spleens were cut into 1-2 mm^3 pieces with a razor blade and incubated at 37° C. with 10 μg/mL DNase and 1 mg/mL Collagenase D with agitation for 90 min. Spleen fragments and cells were then pressed through a nylon screen, and the resulting cell suspension was washed. In 96-well flat-bottom plates, splenocytes were cultured in quadruplicate with the following conditions for 2 days, after which supernatants were tested for cytokine levels with the MSD platform.
Anti-CD3 (clone 2C11; 0.1 μg/mL)
GPR174 inhibitor (compound 10, 1 μM or 0.3 μM, or DMSO vehicle control)
GPR174 inhibitor (compound 6, 0.3 μM, or DMSO vehicle control)
Adenosine receptor agonist (NECA, 0.1 μM)

GPR174 = GPR174 (Homo sapiens, UniProt Q9BXC1); experiment: CRE-Luc reporter Gs signaling assay with GPR174; design: host or cells: HEK293 or CHO cell lines (ATCC)
[1] = high and low concentrations, ZM 0.1 μM
[2] = no ZM, 0.3 μM (compound 20: 3 μM)
[3] = no ZM, 1 μM (compound 20: 10 μM)
[4] = with ZM-241385 0.1 μM, 0.3 μM (compound 20: 3 μM)
[5] = with ZM-241385 0.1 μM, 1 μM (compound 20: 10 μM), label ZM = ZM alone

Chain of GPR174 (Q9BXC1 whole entry): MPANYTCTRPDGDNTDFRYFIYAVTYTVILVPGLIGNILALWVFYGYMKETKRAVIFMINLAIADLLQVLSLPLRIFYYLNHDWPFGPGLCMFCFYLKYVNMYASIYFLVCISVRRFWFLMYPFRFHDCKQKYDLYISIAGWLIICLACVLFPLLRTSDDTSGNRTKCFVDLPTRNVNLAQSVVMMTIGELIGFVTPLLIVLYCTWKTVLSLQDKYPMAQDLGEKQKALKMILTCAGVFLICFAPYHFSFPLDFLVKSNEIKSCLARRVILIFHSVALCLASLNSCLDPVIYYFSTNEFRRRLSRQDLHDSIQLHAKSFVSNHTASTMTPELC

## O=C(c1ccccc1)N1CCN(c2cc(N3CCCCC3)c(F)cc2[N+](=O)[O-])CC1 [compound 6]
Human PBMCs; [1]
  synergy with ZM on GM-CSF (greater than the sum of the increases with each inhibitor alone): synergized with ZM
  synergy with ZM on IFN-γ (greater than the sum of the increases with each inhibitor alone): synergized with ZM
  synergy with ZM on IL-2 (greater than the sum of the increases with each inhibitor alone): synergized with ZM
  synergy with ZM on TNF (greater than the sum of the increases with each inhibitor alone): synergized with ZM
Human PBMCs; [2]
  GM-CSF, ratio relative to vehicle control: 3.9*
  IFN-γ, ratio relative to vehicle control: 2.0*
  IL-2, ratio relative to vehicle control: 1.5*
  TNF, ratio relative to vehicle control: 2.1*
Human PBMCs; [3]
  GM-CSF, ratio relative to vehicle control: 2.9*
  IFN-γ, ratio relative to vehicle control: 1.9*
  IL-2, ratio relative to vehicle control: 1.5*
  TNF, ratio relative to vehicle control: 2.1*
Human PBMCs; [4]
  GM-CSF, ratio relative to vehicle control: 6.2*
  IFN-γ, ratio relative to vehicle control: 3.1*
  IL-2, ratio relative to vehicle control: 1.9*
  TNF, ratio relative to vehicle control: 3.4*
Human PBMCs; [5]
  GM-CSF, ratio relative to vehicle control: 6.0*
  IFN-γ, ratio relative to vehicle control: 3.8*
  IL-2, ratio relative to vehicle control: 2.1*
  TNF, ratio relative to vehicle control: 4.0*
Mouse splenocytes
  increase of IL-2 levels: modest off-target activity
GPR174; increasing concentrations of compound
  Gs pathway in the presence of GPR174 (CRE-Luc reporter): inhibited
GPR174; pCRE-Luc reporter
  Fold decrease in Gs signaling activity: 3.8 fold
GPR174; pCRE-Luc reporter, multiple values = separate experiments
  EC50: 0.4 µM and 0.3 µM

Reference: patent US20200345725A1, “Methods and Compositions for Treating Cancer” (Omeros Corporation, priority 2019, published 2020)
